Laboratory results from publication PMC9612231, “Antileishmanial Anthracene Endoperoxides: Efficacy In Vitro, Mechanisms and Structure-Activity Relationships” (Molecules, 2022).
Like-named read-outs stand apart in the source and are kept apart here.

How the values were obtained:
[1] = test system: Leishmania tarentolae promastigotes (LtP); assay: Resazurin viability assay for LtP; format: cell-based; settings: for IC50: Leishmania tarentolae, read-out: LtP IC50; for Selectivity IC50,J774/IC50,LtP: ratio of IC50 in J774 macrophages to IC50 in LtP; for IC50,non-EP/IC50,EP: ratio of IC50 of non-EP in LtP versus IC50 of respective EP
Experimental: (§1) The influence of AcEP and their analogs (Ac) on the viability of cells was tested in Leishmania tarentolae promastigotes (LtP) and J774 macrophages (Table 2). Based on the changes of viability of the respective cell lines at different compound concentrations, IC50 values were calculated. In Table 2, the IC50 values in both cell lines were compared for the individual compounds. From the ratio of IC50 values in J774 macrophages to IC50 values in LtP, an in vitro selectivity was calculated.
LtP (strain P10 from Jena Bioscience, Jena, Germany) were cultivated according to manufacturer instructions up to passage 50 in brain heart infusion medium (37 g/L, pH 7.4) and supplemented with 5 mg/L hemin and 25,000 IU/L penicillin and 25 mg/L streptomycin in 50 mL TubeSpin bioreactors (TPP, Trasadingen. Switzerland). LtP were grown at 27 °C in an incubator (Ehret, Emmendingen, Germany) and agitated at a frequency of 0.05 s^−1. […] For experiments, LtP were used one day after passage. The cell number was calculated by measuring the optical density (OD) of the culture at 600 nm with a U-1100 photometer (Hitachi Ltd., Tokyo, Japan) and applying the formula × 10^6 cells/mL = OD600nm × 0.969 × 124 × dilution factor [53].
Assay medium of YEM (20.7 g/L yeast extract powder, 1.2 g/L K2HPO4, 0.2 g/L KH2PO4, 2.9 g/L glucose, pH 7.4) and PBS (1:1, v/v), 25,000 U/L penicillin, 25 mg/L streptomycin, and 7.7 µM hemin was prepared. Aliquots of 200 µL of this medium and 2 × 10^6 LtP/mL (where required) were distributed in non-treated cell culture 96-well plates. Compounds (dissolved in DMSO) were added with starting concentrations of 25 µM (Pen) or 200 µM (AcEP/Ac), and then, serial dilutions were carried out resulting in a set of concentrations (25, 5, 1, 0.2, 0.04, and 0.008 µM) or (200, 40, 8, 1.6, 0.32, and 0.064 µM). For each compound concentration, at least triplicates on each plate were performed. After incubation of the plates at 27 °C for 48 h, 50 µL of resazurin solution (final concentration in wells 20 µM) was added to each well and after 4 h of incubation, the fluorescence was measured at 560 nm excitation and 590 nm emission using a plate reader (Perkin Elmer EnSpire, Rodgau, Germany) (adapted from). Combination assays for viability in the presence of PIH and NAC were performed the same way. […] All tests were repeated at least on four different weeks of cultivation.
(§2) Calculations were carried out using Microsoft Excel 2016 (Microsoft). The graphs were created using Origin 6.1 (OriginLab Corporation, Northampton, MA, USA). For all groups of experimental data, mean and standard deviation (SD) were calculated. Statistically significant differences between groups of sample data were identified by unpaired two-tailed Student’s t-test. Differences on the level of p < 0.05 were considered significant. The number of replicates is indicated at the respective figures/tables. The half-maximal inhibitory concentrations (IC50) were determined from non-linear concentration-response curves using a four-parameter logistic model and expressed as the mean ± SD.

J774 macrophages = assay: Resazurin viability assay for J774 macrophages; format: cell-based, murine; settings: Mus musculus, J774, 48 h, read-out: J774 IC50
Experimental: as §1
The murine macrophage cell line J774A.1 (ATCC, TIB-67™, Wesel, Germany) was cultivated up to passage 30 in DMEM (high glucose, 3.7 g/L NaHCO3, pH 7.4) with 25,000 IU/L penicillin, 25 mg/L streptomycin, and 10% FCS (heat-inactivated) in 50 mL TubeSpin bioreactors. J774 cells were incubated at 37 °C and 5% CO2 on a roller culture apparatus (5 rpm) in a Heraeus Cytoperm 8080 incubator (Thermo Electron Corp., Vienna, Austria). To determine the cell count, the cell suspension was re-suspended and diluted 1:2 with phosphate-buffered saline (PBS): 137 mM NaCl, 1.4 mM KH2PO4, 4.3 mM Na2HPO4, and 2.7 mM KCl, pH 7.4. After fixation of the cells by mixing the cell suspension 1:1 with a formaldehyde solution (2%, v/v), aliquots of the resulting suspension were transferred into a standard Neubauer chamber (VWR, Austria) and counted manually using a light microscope (Motic BA310, Vienna, Austria) at a magnification of 40 times. J774 cells were passaged twice a week in a ratio of 1:10.
DMEM containing 25,000 U/L penicillin, 25 mg/L streptomycin, 10% FCS, and 1 × 10^5 J774/mL was prepared. This mixture (200 µL) was distributed in cell culture-treated 96-well plates, except the control wells which contained only DMEM. The cells were incubated for 24 h at 37 °C and 5% CO2 to allow attachment. Afterwards the medium and non-adherent cells were removed by washing with PBS, and then, 200 µL DMEM was added to attached cells. Compounds dissolved in DMSO were added in starting concentrations of 25 µM (Pen) or 200 µM (AcEP/Ac), and then, serial dilutions were carried out resulting in the same concentration steps as listed for LtP. For each compound concentration triplicates on each plate were performed. […], 50 µL of resazurin solution (final concentration 20 µM) was added, and after 4 h of incubation, the fluorescence was measured at 560 nm excitation and 590 nm emission using a plate reader (Perkin Elmer EnSpire, Rodgau, Germany). All tests were repeated at least on four different weeks of cultivation.
as §2

[2] = UV detection of cycloreversion (thermal decomposition) of AcEP; format: physicochemical; settings: 40 µM AcEP in EtOH at 70 °C over up to 23 h, UV spectra
Experimental: To determine EP decomposition, we recorded at first the UV spectra of the parent Ac compound and then observed the spectral changes of the corresponding EP during incubation in EtOH (Figure 7). […] Spectral changes in these compounds rather indicate other decomposition pathways.
A sample of the corresponding Ac in 1.5 mL EtOH (final concentrations 2, 8, or 10 µM) was transferred into a quartz cuvette and measured by an UV–VIS spectrometer (U3300, Hitachi, Tokyo, Japan) at 70 °C. Afterwards, an aliquot of the corresponding AcEP dissolved in EtOH (final concentration 40 µM) was pipetted into a cuvette, and its UV spectra were measured at 70 °C in a time interval of 1 h over a period of 23 h. After measurements, the re-appearance of the Ac absorption pattern was verified.

[3] = resazurin viability, endpoint 48 h, 2 × 10^6 LtP/mL, mean ± SD of 4–8 experiments
[4] = resazurin viability, endpoint 48 h, 10^5 J774 cells/mL, mean ± SD of 4–8 experiments

Row | SMILES | IC50 [1, 3] | Selectivity IC50,J774/IC50,LtP [1] | IC50 (J774 macrophages; [4]) | IC50,non-EP/IC50,EP [1] | Activity against LtP, in words ([1]; viability assay) | Cycloreversion to the parent Ac compound (thermal decomposition) [2] | IC50 ([1]; 48 h) | IC50 (J774 macrophages)
1 | C[n+]1ccc(C23OOC(c4cc[n+](C)cc4)(c4ccccc42)c2ccccc23)cc1 [Compound 1062MeAcEP] | 62 ± 34.2 µM | >3.2 | > 200 µM | – | – | – | – | –
2 | c1ccc(C23OOC(c4ccccc4)(c4ccccc42)c2ccccc23)cc1 [DPAcEP] | 9.67 ± 2.15 µM | 20 | 197 ± 35 µM | 20.3 | rather active | clear reformation of the parent Ac compound over time | – | –
3 | CC(C)(C)c1ccc2c(c1)C1(c3cccnc3)OOC2(c2cccnc2)c2ccccc21 (centres unmarked) [mPyBuAcEP] | 0.7 ± 0.31 µM | 35 | 24.6 ± 7.3 µM | 0.77 | – | clear reformation of the parent Ac compound over time | – | –
4 | CC(C)(C)c1ccc2c(-c3cccnc3)c3ccccc3c(-c3cccnc3)c2c1 [mPyBuAc] | – | 139 | – | – | – | – | 0.54 ± 0.09 µM | 74.2 ± 45.9 µM
5 | COc1ccccc1C12OOC(c3ccccc3OC)(c3ccccc31)c1ccccc12 [oOMeAcEP] | 40.7 ± 12.3 µM | >4.9 | > 200 µM | 1.79 | – | – | – | –
6 | c1ccc(C23OOC(c4ccccn4)(c4ccccc42)c2ccccc23)nc1 [oPyAcEP] | 1.84 ± 0.13 µM | 1.2 | 2.24 ± 0.08 µM | 18.7 | – | did not undergo conversion to the parent Ac compound | – | –
